From patent publication US20240246969A1, “HETEROCYCLIC DERIVATIVES AS CAMKK2 INHIBITORS” (Bristol-Myers Squibb Company, priority 2021, published 2024)

Tests used:
[1] = tested on: phosphorylation of CaMKK2 substrate AMPK at Thr172 in A549 lung carcinoma cells; experiment: Cell-based phosphorylation assay (Phospho-AMPK Thr172 HTRF); settings: Homo sapiens; A549 cells, compounds 4 hours, 3 uM Calcium Ionophore 30 minutes; read-out: Cellular IC50 Phosphorylation
Protocol: Cellular CaMKK2 inhibition by compounds was measured by monitoring the phosphorylation of CaMKK2 substrate AMPK at Thr172 in A549 lung carcinoma cells (ATCC) using CISBIO Phospho-AMPK (Thr172) HTRF kit. A549 cells were plated in 96 well plates at 8000 cells/well in DMEM+10% FBS+1× pen/step+1×NEAA and incubated at 37° C. overnight in a CO2 incubator. Cells were then treated with compounds for 4 hours. After cells were stimulated by 3 uM Calcium Ionophore (Sigma) at 37° C. for 30 minutes, cells were washed and then lysed with cell lysis buffer (CisBio) for 30 minutes. […] Plates were incubated overnight and then read using HTRF mode by BMG PHERAstarFS.

[2] = tested on: A549 lung carcinoma cells; experiment: Cell proliferation assay (CellTiter 96 Aqueous); format: cell-based; settings: Homo sapiens, compounds 48 hours, read-out: Cellular IC50 Proliferation
Protocol: Proliferation was measured using CellTiter 96 Aqueous Non-Radioactive Cell Proliferation Assay Kit (Promega), which determines the number of viable cells in culture based on quantitation of dehydrogenase enzymes, as an indicator of metabolically active cells. A549 lung carcinoma cells were seeded at 2,000 cells/well in a 96-well tissue culture treated plate in DMEM+10% FBS+1× pen/step+1×NEAA and incubated at 37° C. overnight in a CO2 incubator. Cells were treated with compounds for 48 hours. Then viability was measured using CellTiter 96 Aqueous Non-Radioactive Cell Proliferation Assay Kit (Promega). Detection was performed using Biotek Cytation 5 Cell Imaging Multi Mode plate reader.

[3] = target: CaMKK2 (Homo sapiens, UniProt Q96RR4); experiment: CaMKK2 binding assay (LanthaScreen TR-FRET)
Protocol: The ability of test compounds to bind and inhibit the activity of CaMKK2 were determined using a binding assay using LanthaScreent (Thermofisher) detection reagents in a 384-well plate format using the following assay buffer: 50 mM HEPES (pH7.5), 10 mM MgCl2, 1 mM EGTA, and 0.01% Brij-35.
A 10-point serial dilution of inhibitor compound in 0.5% DMSO was added to each well of the plate. The final assay volume in well was 15 uL. […] A ratio was calculated from the 2 readouts and fitted to a 4-parameter fit to determine the binding IC50.

Chain of CaMKK2 (Q96RR4 whole entry): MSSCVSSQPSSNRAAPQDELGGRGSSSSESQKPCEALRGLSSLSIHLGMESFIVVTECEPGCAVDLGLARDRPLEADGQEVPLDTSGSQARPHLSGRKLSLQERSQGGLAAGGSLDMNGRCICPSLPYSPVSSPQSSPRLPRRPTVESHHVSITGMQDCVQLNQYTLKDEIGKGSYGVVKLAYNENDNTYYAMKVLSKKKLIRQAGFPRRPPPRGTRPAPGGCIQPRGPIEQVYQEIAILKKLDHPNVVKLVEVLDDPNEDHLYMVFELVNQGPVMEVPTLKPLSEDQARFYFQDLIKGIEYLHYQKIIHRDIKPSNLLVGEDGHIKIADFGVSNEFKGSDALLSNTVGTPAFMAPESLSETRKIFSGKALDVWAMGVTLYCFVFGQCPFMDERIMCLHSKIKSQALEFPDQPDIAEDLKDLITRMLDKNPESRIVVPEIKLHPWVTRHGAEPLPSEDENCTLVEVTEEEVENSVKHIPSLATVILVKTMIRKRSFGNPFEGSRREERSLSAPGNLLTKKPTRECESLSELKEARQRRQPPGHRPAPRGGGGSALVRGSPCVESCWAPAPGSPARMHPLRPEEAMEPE

Row | Structure (SMILES) | IC50 [1] [µM] | IC50 [2] [µM] | IC50 [3] [µM]
1 | O=C(O)c1ccc(-n2ccc3ncc(-c4ccccc4)nc32)cc1C1CCCC1 [Example 1, 2-Cyclopentyl-4-(3-phenylpyrrolo[2,3-b]pyrazin-5-yl)benzoic Acid] | < 0.1 | > 10 | < 0.1
2 | O=C(O)c1ccc(-n2ccc3ncc(-c4cccc(C5CC5)c4)nc32)cc1C1CCCC1 [Example 2, 2-Cyclopentyl-4-[3-(3-cyclopropylphenyl)pyrrolo[2,3-b]pyrazin-5-yl]benzoic Acid] | < 0.1 | > 10 | < 0.1
3 | O=C(O)c1ccc(-c2ccnc3cc(-c4ccccc4)nn23)cc1C1CCCC1 [Example 2.2, 2-Cyclopentyl-4-(2-phenylpyrazolo[1,5-a]pyrimidin-7-yl)benzoic Acid] | 0.1 to 1 | > 10 | < 0.1
4 | O=C(O)c1ccc(-c2ccnc3cc(-c4ccccc4F)nn23)cc1C1CCCC1 [Example 2.6, 2-Cyclopentyl-4-(2-(2-fluorophenyl)pyrazolo[1,5-a]pyrimidin-7-yl)benzoic Acid] | 0.1 to 1 | > 10 | < 0.1
5 | CCOc1cccc(-c2cc3nccc(-c4ccc(C(=O)O)c(C5CCCC5)c4)n3n2)c1 [Example 2.10, 2-Cyclopentyl-4-(2-(3-ethoxyphenyl)pyrazolo[1,5-a]pyrimidin-7-yl)benzoic Acid] | 0.1 to 1 | > 10 | < 0.1
6 | O=C(O)c1ccc(-c2ccnc3cc(-c4cccc(OCC5CC5)c4)nn23)cc1C1CCCC1 [Example 2.11, 2-Cyclopentyl-4-(2-(3-(cyclopropylmethoxy)phenyl)pyrazolo[1,5-a]pyrimidin-7-yl)benzoic Acid] | 0.1 to 1 | > 10 | < 0.1
7 | O=C(O)c1ccc(-n2ccc3ncc(-c4cccc(Cl)c4)nc32)cc1C1CCCC1 [Example 3, 4-[3-(3-Chlorophenyl)pyrrolo[2,3-b]pyrazin-5-yl]-2-cyclopentyl-benzoic Acid] | 0.1 to 1 | > 10 | < 0.1
8 | O=C(O)c1ccc(-c2ccnc3cn(-c4ccc(F)cc4)nc23)cc1C1CCCC1 [Example 3.1, 2-Cyclopentyl-4-[2-(4-fluorophenyl)pyrazolo[4,3-b]pyridin-7-yl]benzoic Acid] | 0.1 to 1 | > 10 | < 0.1
9 | O=C(O)c1ccc(-c2ccnc3cn(-c4ccccc4)nc23)cc1C1CCCC1 [Example 3.2, 2-Cyclopentyl-4-(2-phenyl-2H-pyrazolo[4,3-b]pyridin-7-yl)benzoic Acid] | < 0.1 | > 10 | < 0.1
10 | Cc1cccc(-n2cc3nccc(-c4ccc(C(=O)O)c(C5CCCC5)c4)c3n2)c1 [Example 3.3, 2-Cyclopentyl-4-(2-(m-tolyl)-2H-pyrazolo[4,3-b]pyridin-7-yl)benzoic Acid] | 0.1 to 1 | > 10 | < 0.1
11 | O=C(O)c1ccc(-c2ccnc3cn(-c4cccc(C5CC5)c4)nc23)cc1C1CCCC1 [Example 3.4, 2-Cyclopentyl-4-(2-(3-cyclopropylphenyl)-2H-pyrazolo[4,3-b]pyridin-7-yl)benzoic Acid] | < 0.1 | > 10 | < 0.1
12 | O=C(O)c1ccc(-c2c(F)cnc3cn(-c4ccc(F)cc4)nc23)cc1C1CCCC1 [Example 3.5, 2-Cyclopentyl-4-(6-fluoro-2-(4-fluorophenyl)-2H-pyrazolo[4,3-b]pyridin-7-yl)benzoic Acid] | 0.1 to 1 | > 10 | < 0.1
13 | O=C(O)c1ccc(-c2ccnc3cn(-c4cccc(Cl)c4)nc23)cc1C1CCCC1 [Example 3.6, 4-(2-(3-Chlorophenyl)-2H-pyrazolo[4,3-b]pyridin-7-yl)-2-cyclopentylbenzoic Acid] | 0.1 to 1 | > 10 | < 0.1
14 | Cc1cc(Cl)cc(-n2cc3ncc(F)c(-c4ccc(C(=O)O)c(C5CCCC5)c4)c3n2)c1 [Example 3.7, 4-(2-(3-Chloro-5-methylphenyl)-6-fluoro-2H-pyrazolo[4,3-b]pyridin-7-yl)-2-cyclopentylbenzoic Acid] | < 0.1 | > 10 | < 0.1
15 | O=C(O)c1ccc(-c2c(F)cnc3cn(-c4cccc(C(F)(F)F)c4)nc23)cc1C1CCCC1 [Example 3.9, 2-Cyclopentyl-4-(6-fluoro-2-(3-(trifluoromethyl)phenyl)-2H-pyrazolo[4,3-b]pyridin-7-yl)benzoic Acid] | 0.1 to 1 | > 10 | < 0.1
16 | O=C(O)c1ccc(-c2c(F)cnc3cn(-c4cc(F)cc(F)c4)nc23)cc1C1CCCC1 [Example 3.12, 2-Cyclopentyl-4-(2-(3,5-difluorophenyl)-6-fluoro-2H-pyrazolo[4,3-b]pyridin-7-yl)benzoic Acid] | 0.1 to 1 | > 10 | < 0.1
17 | O=C(O)c1ccc(-c2c(F)cnc3cn(-c4cc(Cl)cc(Cl)c4)nc23)cc1C1CCCC1 [Example 3.16, 2-Cyclopentyl-4-(2-(3,5-dichlorophenyl)-6-fluoro-2H-pyrazolo[4,3-b]pyridin-7-yl)benzoic Acid] | < 0.1 | > 10 | < 0.1
18 | COc1cc(F)cc(-n2cc3ncc(F)c(-c4ccc(C(=O)O)c(C5CCCC5)c4)c3n2)c1 [Example 3.17, 2-Cyclopentyl-4-(6-fluoro-2-(3-fluoro-5-methoxyphenyl)-2H-pyrazolo[4,3-b]pyridin-7-yl)benzoic Acid] | 0.1 to 1 | > 10 | < 0.1
19 | Cc1cc(OC(F)(F)F)cc(-n2cc3ncc(F)c(-c4ccc(C(=O)O)c(C5CCCC5)c4)c3n2)c1 [Example 3.18, 2-Cyclopentyl-4-(6-fluoro-2-(3-methyl-5-(trifluoromethoxy)phenyl)-2H-pyrazolo[4,3-b]pyridin-7-yl)benzoic Acid] | 0.1 to 1 | > 10 | < 0.1
20 | O=C(O)c1ccc(-c2ccnn3cc(-c4ccccc4)cc23)cc1C1CCCC1 [Example 4.1, 2-Cyclopentyl-4-(6-phenylpyrrolo[1,2-b]pyridazin-4-yl)benzoic Acid] | 0.1 to 1 | > 10 | < 0.1
21 | CCNc1cc(-n2ccc3ncc(-c4ccccc4)nc32)ccc1C(=O)O [Example 5, 2-(Ethylamino)-4-(3-phenylpyrrolo[2,3-b]pyrazin-5-yl)benzoic Acid] | 0.1 to 1 | > 10 | < 0.1
22 | O=C(O)c1ccc(-n2ccc3ncc(-c4ccccc4)nc32)cc1NCC1CC1 [Example 6, 2-((Cyclopropylmethyl)amino)-4-(3-phenyl-5H-pyrrolo[2,3-b]pyrazin-5-yl)benzoic Acid] | 0.1 to 1 | > 10 | < 0.1
23 | O=C(O)c1ccc(-n2ccc3ncc(-c4ccccc4)nc32)cc1NC1CCCC1 [Example 7, 2-(Cyclopentylamino)-4-(3-phenyl-5H-pyrrolo[2,3-b]pyrazin-5-yl)benzoic Acid] | 1 to 10 | > 10 | < 0.1
24 | CCNc1cc(-n2ccc3ncc(-c4ccc(F)cc4F)nc32)ccc1C(=O)O [Example 9, 4-(3-(2,4-Difluorophenyl)-5H-pyrrolo[2,3-b]pyrazin-5-yl)-2-(ethylamino)benzoic Acid] | 0.1 to 1 | > 10 | < 0.1
25 | Cn1cc2cc(-c3cnc4ccn(-c5ccc(C(=O)O)c(NCC6CC6)c5)c4n3)ccc2n1 [Example 12, 2-(Cyclopropylmethylamino)-4-(3-(2-methyl-2H-indazol-5-yl)-5H-pyrrolo[2,3-b]pyrazin-5-yl)benzoic Acid] | 0.1 to 1 | > 10 | < 0.1
26 | Cc1cc(C)cc(-c2cnc3ccn(-c4ccc(C(=O)O)c(N[C@H]5CCNC5)c4)c3n2)c1 [Example 32, (S)-4-(3-(3,5-dimethylphenyl)-5H-pyrrolo[2,3-b]pyrazin-5-yl)-2-(pyrrolidin-3-ylamino)benzoic Acid] |  |  | < 0.1
27 | Cc1cc(C)cc(-c2cnc3ccn(-c4ccc(C(=O)O)c(N[C@@H]5CCCNC5)c4)c3n2)c1 [Example 33, (R)-4-(3-(3,5-dimethylphenyl)-5H-pyrrolo[2,3-b]pyrazin-5-yl)-2-(piperidin-3-ylamino)benzoic Acid] |  |  | < 0.1
28 | Cc1cc(C)cc(-c2cnc3ccn(-c4ccc(C(=O)O)c(NC5CCNCC5)c4)c3n2)c1 [Example 34, 4-(3-(3,5-dimethylphenyl)-5H-pyrrolo[2,3-b]pyrazin-5-yl)-2-(piperidin-4-ylamino)benzoic Acid] |  |  | < 0.1
29 | Cc1cc(C)cc(-c2cnc3ccn(-c4ccc(C(=O)O)c(O[C@@H]5CCNC5)c4)c3n2)c1 [Example 35, (R)-4-(3-(3,5-dimethylphenyl)-5H-pyrrolo[2,3-b]pyrazin-5-yl)-2-(pyrrolidin-3-yloxy)benzoic Acid] |  |  | 0.1 to 1
